Assay results reported in ChEMBL document CHEMBL1150257, “Synthesis and cytotoxicity of a salicylihalamide A analogue” (2008).

Key:
Assay type in all cases: functional
SK-MEL-5 = assay: Cytotoxicity against human SK-MEL-5 cells
SR = assay: Cytotoxicity against human SR cells
MDA-MB-435 = assay: Cytotoxicity against human MDA-MB-435 cells
MCF7 = assay: Cytotoxicity against human MCF7 cells

Q: Which GI50 (SK-MEL-5) does the source give for `CC/C=C\C=C/C(=O)N/C=C/C[C@H]1C[C@@H](O)[C@@H](C)C/C=C/Cc2cccc(O)c2C(=O)O1` [SALICYLIHALAMIDE A] here?
A: 0.007 µM

Q: Which results are given for `CC/C=C\C=C/C(=O)N/C=C/CC1Cc2cccc(O)c2C(=O)O1` (racemic)?
A: GI50 (SR): 2 µM; GI50 (SK-MEL-5): 27 µM; GI50 (MDA-MB-435): 11 µM; GI50 (MCF7): 49 µM
